Measured values taken from US20050209298A1, “Method of photodynamic diagnosis for vascular diseases” (HAMAMATSU PHOTONICS K.K, priority 2002, published 2005).

Assays:
[1] = tested on: Human Umbilical Vein Endothelial Cells (HUVECS); experiment: Effects of PDT on inflamed human umbilical vein endothelial cells (MTT viability); assay type: cell-based; conditions: non-irradiated groups (0 J/cm^2); 25 or 50 μg/mL
Procedure: Test 1 (in vitro Test): Effects of PDT on Human Umbilical Vein Endothelial Cells (HUVECS)
As a first step, we determined if cell death of inflamed HUVECs can be induced by PDT.
HUVECs were seeded in a culture medium at […]. After a predetermined culture period, IL-1β(1 ng/mL) and TNF-α(10 ng/mL) were added to stimulate the cells and, thus, cause inflammation of the cells. After a 1-hour stimulation period, the cells were divided into two groups, and 25 μg/ml of ATX-S10•Na of the present invention was added to one group and 50 μg/ml of ATX-S10•Na to the other group. Subsequently, the cells were incubated at 37° C. for 24 hours.
After the incubation period, laser was irradiated onto the cultured cells (each dosage group was divided into five subgroups, which were irradiated at 0, 15, 30, 50, and 100 J/cm^2). 24 hours after the irradiation, the viability of HUVECs was determined by MTT assay.

[2] = tested on: type II collagen-induced arthritis; experiment: Effects of PDT on model mice with type II collagen-induced arthritis; assay type: in vivo; conditions: 5 mg/kg i.v.
Procedure: Test 2 (in vivo Test): Effects of PDT on Model Mice with Type II Collagen-Induced Arthritis Male DBA/1 mice, aged6 to 8 weeks and weighing 15 to 18 g, were used. Arthritis was induced by type II collagen according to the following schedule. On Day 0, 2 mg. of anti-type II collagen antibody cocktail was intraperitoneally injected. On Day 1, 2 mg of anti-type II collagen antibody cocktail was again intraperitoneally injected. On Day 2 and Day 3, 50 μg of lipopolysaccharide (LPS) was intraperitoneally injected to induce type II collagen arthritis. On Day 5, induction of type II collagen arthritis was confirmed. A test group of 5 animals and a control group of 3 animals were intravenously injected with 5 mg/kg of ATX-S10•Na. The test group was exposed to laser irradiation (dose: 30 J/cm^2) 3 hours after administration of ATX-S10•Na. […] Each animal was perfusion-fixed, and joint tissue was collected and stained with Safranin 0. The resulting decalcified tissue sample was subjected to histological analysis.

[3] = tested on: Keratinocytes from a patient with inflammatory keratosis; experiment: Cytotoxicity of PDT against cultured keratinocytes; assay type: cell-based, human; conditions: 50 μg/mL; laser 10 J/cm^2; 6 hours after laser irradiation; viable cells prior to irradiation = 100%
Procedure: FIG. 6 is a graph showing cytotoxic effects of PDT using ATX-S10•Na of the present invention on cultured keratinocytes. 50 μg/mL of ATX-S10•Na of the present invention was added to the cell culture. After a predetermined culture period, the cells were washed with PBS and were irradiated with laser at 10 J/cm^2. The viability of the keratinocytes was determined 1, 2, 3, 6, 12, and 24 hours after the irradiation and was plotted on a graph.
Test 3 (in vitro Test): Cytotoxicity Against Cultured Keratinocytes
Keratinocytes were collected from a patient with inflammatory keratosis and were cultured at 37° C. for 24 hours. To the cell culture, 50 μg/mL of ATX-S10•Na of the present invention was added and the cells were further cultured under the same conditions.
Assuming the initial number of the viable cells in the culture medium prior to laser irradiation to be 100%, the viability of the cells was determined at 1, 2, 3, 6, 12, and 24 hours after the irradiation. As shown, 75% of the keratinocytes incubated with ATX-S10•Na died 6 hours after laser irradiation.

[4] = tested on: TPA-caused dermatitis; experiment: TPA-induced dermatitis in mouse skin: skin accumulation and PDT after ATX-S10•Na ointment; assay type: in vivo, mice; conditions: 1% ointment, 3 hours
Procedure: Test 4 (in vivo Test): Induction of Dermatitis in Mouse Skin by Treatment with Tetradecanoyl Phorbol Acetate (TPA) and Therapeutic Effects of PDT Following Application of ATX-S10•Na Ointment Using a hydrophilic ointment base described in Japanese Pharmacopoeia, two hydrophilic ointments, one containing 1% of ATX-S10•Na and the other 10% of the compound, were prepared by a common pharmaceutical technique. Male DBA/1 mice, aged 6 to 8 weeks and weighing 15 to 18 g, were shaved with a clipper and a razor. TPA was then applied to the skin to induce dermatitis. 3) To a test group, the hydrophilic ointment containing 1% ATX-S10•Na was applied. The ointment was applied to the region of the skin where dermatitis was induced and was rinsed off after 3 hours. To a control group, an ATX-S10•Na-free hydrophilic ointment was applied and was also rinsed off after application. […] The test group was then divided into two subgroups: one group was irradiated with laser at 100 J/cm^2 and the other group was not irradiated. Skin histology of each animal was observed.

C=CC1=C(C)C2=CC3=C(/C=C/NO)C(C)(O)C(=CC4=NC(=CC5=NC(=CC1=N2)C(C)=C5CCC(=O)N[C@@H](CC(=O)[O-])C(=O)[O-])C(CCC(=O)N[C@@H](CC(=O)[O-])C(=O)[O-])=C4C)N3.[Na+].[Na+].[Na+].[Na+] (stereo partly shown) [ATX-S10•Na]
cell death of HUVECs [1]: no cell death was observed | synovial infiltration (histological analysis of joint tissue) ([2]; laser 30 J/cm^2, test group): synovial infiltration was suppressed | synovial infiltration (histological analysis of joint tissue) ([2]; no laser irradiation (control group)): significant infiltration of synovial cells | clinical arthritis score ([2]; no laser irradiation (control group), Day 14): 4 | keratinocytes died [3]: 75% | TPA-caused dermatitis inflamed region (skin histology) ([4]; laser 100 J/cm^2): significant decrease in the inflamed region | TPA-caused dermatitis inflamed region (skin histology) ([4]; non-irradiated group): sustained
